According to patent US20260137698A1, “CYCLIN-DEPENDENT KINASE 7 INHIBITORS” (JOINT STOCK COMPANY «BIOCAD», priority 2022, published 2026):
Like-named read-outs stand apart in the source and are kept apart here.

What was measured:
CDK13/Cyclin K = CDK13/Cyclin K (Homo sapiens, UniProt Q14004); assay: Inhibition of CDK13/Cyclin K kinase activity (ADP-Glo); type: biochemical
Description: Measurements were carried out in a 5 μl reaction volume using a 384-well plate (Corning Inc., order no. 4513). The analyzed substances were titrated from 50 μM in increments of 4 at 11 concentration points in a normal strength kinase buffer A (Thermo Fisher Scientific Inc, cat. no. PV3189) supplemented with DTT (Sigma, orde. no. 646563-10X.5ML) and prepared with water (Panreac, order no. 701074). Kinase was diluted in an analogous buffer, mixed with test compounds in plate wells and preincubated for 10 minutes at 25° C. Following incubation, a mixture of reaction substrate (CDKtide (SignalChem, order no. C06-58) or Histone H1 (SignalChem, order no. H10-54N) or PDKtide (SignalChem, order no. P10-58) and ATP (SignalChem, order no. V915B) prepared on a normal strength kinase buffer A was added. 1% solution of dimethyl sulfoxide (DMSO) (Sigma-Aldrich, order no. D2438) in the reaction volume was used as a negative control. The final concentrations of all reaction components are shown in Table 5. The plate was centrifuged at 400 rcf (Eppendorf, 5804 R) for 1 minute and incubated for 40-60 minutes at 25° C. The amount of ATP consumed in the kinase reaction was then measured using the ADP-Glo™ detection system. Luminescence signal was measured using Spark 20M tablet multifunction reader (Tecan Group Ltd, Switzerland). IC50 value was calculated using Magellan 7.2 (Tecan Group Ltd, Switzerland) by approximating experimental points by four-parameter model with the optimization by Levenberg-Marquardt:
[formula] • where A is the upper asymptote; D is the lower asymptote; C is IC50, half-maximal inhibitory concentration of kinase, nM; B is the curvature (slope).

[1] = Microsomal stability in rat liver microsomes (RLM); type: in vitro ADME; settings: rat liver microsomes 0.5 mg/ml, 1 μM compound, NADPH
Description: (§1) The procedure for investigating the metabolism of selected compounds was carried out in microsomal fractions of the liver (of rats, mice, humans) in the presence of a phase I metabolism cofactor (NADPH).
(§2) The rate of enzymatic decomposition of the compound in liver microsomes in in vitro analysis was determined by keeping a reaction mixture comprising 0.5 mg/ml of pooled human, rat or mouse liver microsomes, 1 μM test compound, 1.5 mM […] (Carbosynth, UK, cat. no. NN108711101) and 1.5 mM magnesium chloride in 0.1 M sodium phosphate buffer (pH 7.4) in a solid-state thermostat at 37° C. (XenoTech, USA, order no. H2610, cat. no. R1000, cat. no. M1000). Incubation was carried out in three replicates.
(§3) To determine the stability of compounds under sample preparation conditions, an aliquot in two replicates with the test compound and a microsomal fraction devoid of the NADPH cofactor, which was incubated for 40 minutes at 37° C.
(§4) Reactions were stopped at 0, 10, 20, 30 and 40 min time points by way of adding an ice mixture of acetonitrile:methanol (3:1) comprising an internal standard.
(§5) Samples were then centrifuged to remove the precipitated protein, supernatants were analyzed using HPLC-MS/MS to determine in vitro clearance (CLint) of the compounds. The Agilent 6410 mass spectrometer (Agilent, USA) combined with the Agilent 1260 Infinity II HPLC liquid chromatograph (Agilent, USA) and a cooling autosampler controlled by MassHunter software (Agilent, USA) was used as an HPLC-MS/MS system. Chromatographic analysis was performed on a C18 reversed-phase HPLC column (Agilent, Waters or equivalent) in a gradient elution mode in a system of mobile phases: 0.1% formic acid in water/0.1% formic acid in acetonitrile, flow rate: 0.5 ml/min, column T=35° C. Mass spectrometric detection was performed with electrospray ionization in multiple reaction monitoring mode. Precursor ions, fragment ions and collision energies for each substance were selected experimentally.
(§6) A graph of dependence of the logarithmic ratio between substance's peak area and internal standard's peak area vs time was built. The dependent coefficient of this line corresponded to the elimination rate constant k, on the basis of which the in vitro clearance CLint was calculated:
(§7) Based on resulting in vitro clearance CLint values, the microsomal stability of the selected compounds for humans, rats and mice was concluded.

[2] = Passive membrane permeability through PAMPA artificial membrane, pH 7.4; type: in vitro ADME; settings: pH 7.4, 10 μmol, 20 hours at room temperature, mean of multiple measurements, read-out: PAMPA passive permeability Pe
Method in brief: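 Compound at 10 μmol in 0.01 M phosphate buffer pH 7.4 placed in donor wells over lecithin-phospholipid-impregnated PVDF filter, buffer in acceptor; 20 h at room temperature. Donor and acceptor levels measured by RP-HPLC-UV; Pe (cm/s) and membrane retention R (%) calculated.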

[3] = Microsomal stability in human liver microsomes (HLM); type: in vitro ADME; settings: 1 μM test compound
Description: as §1, §2, §3, §4, §5, §6, §7

[4] = General cytotoxicity on primary differentiated HepaRG cells (72 h); type: cell-based; settings: human, general toxicity, mean value from several measurements
Method in brief: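 Test compounds spanning 200 μM to 0.2 nM were incubated for 72 hours with primary differentiated HepaRG cells. Cells had been kept one week in supplemented hepatic medium and seeded the night before at 25×10^3 per well, and viability was then measured.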

[5] = mean of multiple measurement series, ATP 10 μM, read-out: CDK13/Cyclin K IC50
[6] = mean value from several measurements, read-out: IC50 CDK13/Cyclin K

Sequence of CDK13/Cyclin K (Q14004 whole entry): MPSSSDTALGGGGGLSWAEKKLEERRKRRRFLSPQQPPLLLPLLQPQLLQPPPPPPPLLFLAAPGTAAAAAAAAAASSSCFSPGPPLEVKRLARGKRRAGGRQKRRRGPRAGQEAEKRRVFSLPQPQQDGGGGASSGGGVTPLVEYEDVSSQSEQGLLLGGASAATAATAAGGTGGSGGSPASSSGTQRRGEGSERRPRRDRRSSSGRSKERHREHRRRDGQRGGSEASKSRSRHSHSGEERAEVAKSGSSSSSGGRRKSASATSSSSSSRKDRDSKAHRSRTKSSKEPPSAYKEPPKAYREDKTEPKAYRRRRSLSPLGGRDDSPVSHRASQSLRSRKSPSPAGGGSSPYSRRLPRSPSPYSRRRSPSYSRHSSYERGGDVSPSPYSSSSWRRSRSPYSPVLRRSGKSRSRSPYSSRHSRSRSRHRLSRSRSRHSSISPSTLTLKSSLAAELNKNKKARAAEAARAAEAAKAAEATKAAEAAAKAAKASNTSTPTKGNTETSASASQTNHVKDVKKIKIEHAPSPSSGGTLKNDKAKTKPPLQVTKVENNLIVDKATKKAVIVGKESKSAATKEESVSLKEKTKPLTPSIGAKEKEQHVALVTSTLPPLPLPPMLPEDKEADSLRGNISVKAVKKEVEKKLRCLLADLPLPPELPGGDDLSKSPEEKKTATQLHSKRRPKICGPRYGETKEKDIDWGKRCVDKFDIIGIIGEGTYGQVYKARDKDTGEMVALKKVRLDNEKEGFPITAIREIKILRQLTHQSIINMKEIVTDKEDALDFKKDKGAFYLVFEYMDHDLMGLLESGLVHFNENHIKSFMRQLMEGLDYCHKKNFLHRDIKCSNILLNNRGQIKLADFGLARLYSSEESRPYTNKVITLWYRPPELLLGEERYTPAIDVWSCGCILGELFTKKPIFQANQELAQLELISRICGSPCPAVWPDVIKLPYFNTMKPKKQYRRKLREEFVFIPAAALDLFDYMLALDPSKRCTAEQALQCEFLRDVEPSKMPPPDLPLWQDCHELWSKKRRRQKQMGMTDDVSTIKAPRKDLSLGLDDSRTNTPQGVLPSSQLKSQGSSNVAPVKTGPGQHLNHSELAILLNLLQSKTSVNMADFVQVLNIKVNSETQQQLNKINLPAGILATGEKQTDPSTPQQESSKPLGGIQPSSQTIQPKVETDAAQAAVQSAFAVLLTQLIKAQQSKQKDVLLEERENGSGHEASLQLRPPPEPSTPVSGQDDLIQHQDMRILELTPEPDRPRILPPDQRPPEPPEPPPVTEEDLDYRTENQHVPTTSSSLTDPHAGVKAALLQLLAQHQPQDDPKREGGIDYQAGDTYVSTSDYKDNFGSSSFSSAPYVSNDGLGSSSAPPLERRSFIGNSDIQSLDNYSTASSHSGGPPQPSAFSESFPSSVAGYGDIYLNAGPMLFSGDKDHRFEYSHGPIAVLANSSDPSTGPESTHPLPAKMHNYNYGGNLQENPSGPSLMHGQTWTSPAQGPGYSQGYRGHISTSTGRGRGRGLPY
Sequence of CDK13/Cyclin K (O75909 whole entry partner): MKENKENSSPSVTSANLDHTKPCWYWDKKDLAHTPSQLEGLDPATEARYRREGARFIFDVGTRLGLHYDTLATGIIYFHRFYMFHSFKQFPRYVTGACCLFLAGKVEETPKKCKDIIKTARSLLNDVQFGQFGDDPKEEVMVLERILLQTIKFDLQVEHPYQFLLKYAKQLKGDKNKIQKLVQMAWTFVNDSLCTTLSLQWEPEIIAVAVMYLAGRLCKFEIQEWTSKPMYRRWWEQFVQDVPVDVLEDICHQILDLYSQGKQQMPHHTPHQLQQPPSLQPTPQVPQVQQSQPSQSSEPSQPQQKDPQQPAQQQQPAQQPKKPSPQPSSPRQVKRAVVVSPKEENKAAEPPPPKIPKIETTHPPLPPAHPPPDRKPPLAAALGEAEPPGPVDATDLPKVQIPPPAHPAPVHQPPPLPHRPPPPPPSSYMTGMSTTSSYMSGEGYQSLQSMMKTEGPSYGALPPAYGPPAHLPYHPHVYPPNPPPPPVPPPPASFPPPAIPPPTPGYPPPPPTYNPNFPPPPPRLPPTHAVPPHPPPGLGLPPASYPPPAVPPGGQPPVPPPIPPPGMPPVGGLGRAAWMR

| SMILES | IC50 (CDK13/Cyclin K; [5]) | IC50 (CDK13/Cyclin K; [6]) | RLM Clint [1] | Papp at 20 h, 10 μmol [2] | In vitro clearance CLint (HLM) [3] | CC50 at 72 h [4] |
| --- | --- | --- | --- | --- | --- | --- |
| CC(C)N1CCCc2c(-c3nc(N[C@H]4CCC(C)(C)NC4)ncc3C(F)(F)F)c[nH]c2C1=O [CDK7_1229, 3-(2-{[(3S)-6,6-dimethylpiperidin-3-yl]amino}-5-(trifluoromethyl)py-rimidin-4-yl)-7-(propan-2-yl)-1H,4H,5H,6H,7H, 8H-pyrrolo[2,3-c]azepin-8-one] | 242 nM | > 200 nM | A (Clint < 20 μl/(min · mg of protein)) | 5 to 10 ×10⁻⁶ cm/s | B (50 μl/(min · mg of protein) > Clint > 20 μl/(min · mg of protein)) | > 2000 nM |
| O=C1c2[nH]cc(-c3nc(N[C@H]4CCC5(CC5)NC4)ncc3C(F)(F)F)c2CCCN1C1CC1 [CDK7_1276, 3-(2-{[(6S)-4-azaspiro[2.5]octan-6-yl]amino}-5-(trifluoromethyl)py-rimidin-4-yl)-7-cyclopropyl-1H,4H,5H,6H,7H, 8H-pyrrolo[2,3-c]azepin-8-one] | 152 nM | 50 to 200 nM | B (50 μl/(min · mg of protein) > Clint > 20 μl/(min · mg of protein)) | 5 to 10 ×10⁻⁶ cm/s | B (50 μl/(min · mg of protein) > Clint > 20 μl/(min · mg of protein)) | > 2000 nM |
| CC(C)N1CCCc2c(-c3nc(N[C@H]4CCC5(CC5)NC4)ncc3C(F)(F)F)c[nH]c2C1=O [CDK7_1277, 3-(2-{[(6S)-4-azaspiro[2.5]octan-6-yl]amino}-5-(trifluoromethyl)py-rimidin-4-yl)-7-(propan-2-yl)-1H,4H,5H,6H,7H, 8H-pyrrolo[2,3-c]azepin-8-one] | 425 nM | > 200 nM | B (50 μl/(min · mg of protein) > Clint > 20 μl/(min · mg of protein)) | 5 to 10 ×10⁻⁶ cm/s | B (50 μl/(min · mg of protein) > Clint > 20 μl/(min · mg of protein)) | > 2000 nM |
